Patent US9434976B2, “Modification of sample preparation to differentiate live and dead bacteria by polymerase chain reaction assay” (priority 2013, dated 2016)
Entries after “also recorded” stand apart in the source; their conditions may differ. Like-named read-outs stand apart in the source and are kept apart here.

Key:
[1] = system: Salmonella Typhimurium; assay: Real time PCR of live, heat-killed or isopropyl alcohol-killed Salmonella Typhimurium after treatment with a DNA-binding chemical; type: cell-based; details: for Blocking of amplification of DNA from dead bacteria: dead S. typhimurium; for PCR product from live versus killed Salmonella Typhimurium: Gel Red 3x stock
Description: (§1) Various amounts of Gel Red™ can be added to the isolated microbe. Originally the GelRed™ is available at 10,000× solution in water or 3× staining solution in H2O (working solution). The base for the concentration calculation refers to working solution or 3×. In FIGS. 2-4 various dilutions were reported (1:1, 1:10 and 1:100). “1:1” means where 1.0 μl of commercially available Gel Red™ at 3× is diluted in 1.0 μl diluent (such as water). “1:10” means where 1.0 μl of commercially available Gel Red™ at 3× is diluted in 10.0 μl diluent (such as water). “1:100” means where 1.0 μl of commercially available Gel Red™ at 3× is diluted in 100.0 μl diluent (such as water).
(§2) Bacterial species included in these experiments were E. coli, L. monocytogens, and S. Typhimurium. Fresh culture was suspended in a buffer and placed in three tubes (live bacteria, heat-killed and isopropanol-killed bacteria). The first tube contained live bacteria without treatment, and the second and the third tube were inactivated by heat and isopropanol, respectively. The DNA-intercalating chemicals used in this experiment were PMA, EMA and other DNA-binding chemicals, which were not previously reported. The experiments were performed to study the application of sample modification with DNA-binding chemicals to enable PCR to amplify samples only from viable bacteria. […] The bacterial sample was modified with PMA or combined with high voltage light exposure to assess the combined treatment effect.
A sample containing Salmonella Typhimurium was tested. One sample included live Salmonella Typhimurium. Another sample included heat killed Salmonella Typhimurium and another sample contained isopropyl alcohol killed Salmonella Typhimurium. In FIG. 4, Compound CE stands for Gel Red™. Real time PCR was run on the samples.
In this reaction, the amplification was run using primers that targeted the ycdC gene (which encodes a putative transcriptional repressor protein).

[2] = cited from earlier work
[3] = cited from earlier work; remark: listed apart in the source
[4] = system: Escherichia coli 0157:H7; assay: Real time PCR of live, heat-killed or isopropyl alcohol-killed E. coli after treatment with a DNA-binding chemical; type: cell-based; details: for Blocking of amplification of DNA from dead bacteria: dead E. coli; for Penetration into E. coli and blocking of PCR amplification: recommended concentration; for PCR amplification product from live versus killed E. coli: Gel Red 3x stock
Description: as §1, §2
A sample containing E. coli was tested. One sample included live E. coli. Another sample included heat killed E. coli and another sample contained isopropyl alcohol killed E. coli. In FIG. 2, Compound CE stands for Gel Red™. Real time PCR was run on the samples. […] The Gel Red™ was too highly concentrated that it penetrated all of E. coli even in the “live sample. […] The Gel Red™ was too weak to get into the intact cell membrane of the live E. coli.
In this reaction, the amplification was run using primers that targeted the per gene (which encodes perosamine synthetase).

[5] = system: Listeria monocytogenes; assay: Real time PCR of live, heat-killed or isopropyl alcohol-killed L. monocytogenes after treatment with a DNA-binding chemical; type: cell-based; details: for Blocking of amplification of DNA from dead bacteria: dead L. monocytogens; for PCR product from live versus killed L. monocytogenes: Gel Red 3x stock
Description: as §1, §2
A sample containing L. monocytogenes was tested. One sample included live L. monocytogenes. Another sample included heat killed L. monocytogenes and another sample contained isopropyl alcohol killed L. monocytogenes. In FIG. 3, Compound CE stands for Gel Red™. Real time PCR was run on the samples.
In this reaction, the amplification was run using primers that targeted the Hly 9125 gene (which encodes listeriolysin O protein).

[6] = system: bacterial sample; assay: PMA sample modification combined with high voltage light exposure, PCR; type: cell-based
Text: as §2

[7] = concentrations well above the working concentrations used in gel staining

For ethidium monoazide bromide [EMA], the “Blocking of amplification of DNA from dead bacteria” value (shortened to “Blocking of amplification of DNA”) [1] is given as “can block the amplification of DNA from dead bacteria”, the Solubility ([2]; Table 1) is given as “Soluble in DMF or EtOH” and the Harmfulness ([3]; Table 1) is given as “Potentially harmful”. For the same compound, the “Blocking of amplification of DNA” value [4] was “can block the amplification of DNA from dead bacteria”, the “Penetration into E. coli and blocking of PCR amplification” value [4] was “penetrates only live E. coli” and the “Blocking of amplification of DNA” value [5] was “can block the amplification of DNA from dead bacteria”.

For CC[N+](C)(CC)CCC[n+]1c(-c2ccccc2)c2cc(N=[N+]=[N-])ccc2c2ccc(N)cc21 [PMA, propidium monoazide], the “Blocking of amplification of DNA” value [1] is given as “completely blocks the amplification of DNA from dead; also recorded: can block the amplification of DNA from dead bacteria”, the “Cytotoxicity (Description)” value ([3]; Table 1) is given as “substantially lower” and the “Blocking of amplification of DNA” value [4] is given as “completely blocks the amplification of DNA from dead; also recorded: can block the amplification of DNA from dead bacteria”. The “Penetration into E. coli and blocking of PCR amplification” value [4] was “penetrates only live E. coli”, the “Effect of PMA combined with light exposure compared with PMA only” value [6] was “not much different from using only PMA” and the “Blocking of amplification of DNA” value [5] was “completely blocks the amplification of DNA from dead; also recorded: can block the amplification of DNA from dead bacteria”.

In the case of Nc1ccc2c(c1)c(-c1ccccc1)[n+](CCCCCC(=O)NCCCOCCOCCOCCCNC(=O)CCCCC[n+]1c(-c3ccccc3)c3cc(N)ccc3c3ccc(N)cc31)c1cc(N)ccc21.[I-].[I-] [Gel Red™, 5, 5′-(6, 22-dioxo-11, 14, 17-trioxa-7, 21-diazaheptacosane-1, 27-diyl)bis(3,8-diamino-6-phenylphenanthridin-5-ium) iodide], the “PCR product from live versus killed Salmonella Typhimurium” value ([1]; dilution 1:1) is reported as “no PCR products”, the “PCR product from live versus killed Salmonella Typhimurium” value ([1]; dilution 1:10) is reported as “no PCR products” and the “PCR product from live versus killed Salmonella Typhimurium” value ([1]; dilution 1:100) is reported as “signal from live but not from killed samples”. For the same compound, the “Stability under normal light” value ([2]; Table 1, normal light) was “light (photostable)”, the Stability ([2]; Table 1) was “stable” and the Stability ([2]; general statement) was “extremely stable”. The “Cytotoxicity (Description)” value ([3]; Table 1) was “noncytotoxic”, the Cytotoxicity [3, 7] was “noncytotoxic” and the Hazard [3, 7] was “nonhazardous”. The Mutagenicity [3, 7] was “nonmutagenic”, the “PCR amplification product from live versus killed E. coli” value ([4]; dilution 1:1) was “no PCR products even in the sample containing the live bacteria” and the “PCR amplification product from live versus killed E. coli” value ([4]; dilution 1:10) was “signal from live but not from killed samples”. The “PCR amplification product from live versus killed E. coli” value ([4]; dilution 1:100) was “amplification products in all samples, including the killed bacteria samples”, the “PCR product from live versus killed L. monocytogenes” value ([5]; dilution 1:1) was “no PCR products” and the “PCR product from live versus killed L. monocytogenes” value ([5]; dilution 1:10) was “signal from live but not from killed samples”. The “PCR product from live versus killed L. monocytogenes” value ([5]; dilution 1:100) was “signal from live but not from killed samples”.
